Reference: ChEMBL document CHEMBL1201862, “PubChem BioAssay data set” (2004)
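How tested: cells in 96-well plates exposed to compound for 48 hours at five concentrations. The concentration for 50% growth inhibition is given as GI50.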 The source made the active and inactive calls. No stated cut-off is given here; in the data, active = GI50 up to about 1.1 µM and inactive = higher.

Experiments:
Test in all cases: growth of human tumour cells (NCI), 48 h
HOP-62 = test system: HOP-62
NCI-H460 = test system: NCI-H460
SNB-19 = test system: SNB-19
A498 = test system: A498
K562 = test system: K562
ACHN = test system: ACHN
HL-60 = test system: HL-60
UACC-62 = test system: UACC-62
M14 = test system: M14
DU-145 = test system: DU-145
OVCAR-3 = test system: OVCAR-3
SK-OV-3 = test system: SK-OV-3
MCF7 = test system: MCF7
HT-29 = test system: HT-29
SN12C = test system: SN12C
OVCAR-8 = test system: OVCAR-8
MDA-MB-435 = test system: MDA-MB-435
UACC-257 = test system: UACC-257
RPMI-8226 = test system: RPMI-8226
HOP-92 = test system: HOP-92

Compound | GI50 (HOP-62) | GI50 (NCI-H460) | GI50 (SNB-19) | GI50 (A498) | GI50 (K562) | GI50 (ACHN) | GI50 (HL-60) | GI50 (UACC-62) | GI50 (M14) | GI50 (DU-145) | GI50 (OVCAR-3) | GI50 (SK-OV-3) | GI50 (MCF7) | GI50 (HT-29) | GI50 (SN12C) | GI50 (OVCAR-8) | GI50 (MDA-MB-435) | GI50 (UACC-257) | GI50 (RPMI-8226) | GI50 (HOP-92)
O=C(Nc1cccc2ccccc12)c1ccccc1 | 81.3 µM (inactive) | > 100 µM (inactive) | > 100 µM (inactive) | > 100 µM (inactive) | 76.6 µM (inactive) | > 100 µM (inactive) | > 100 µM (inactive) | 86.7 µM (inactive) | > 100 µM (inactive) | > 100 µM (inactive) | 11.8 µM (inactive) | > 100 µM (inactive) | 8.89 µM (inactive) | 47.5 µM (inactive) | > 100 µM (inactive) | > 100 µM (inactive) | 22.6 µM (inactive) | > 100 µM (inactive) | – | –
c1cc2c(c(-c3c4ccccc4nc4ccccc34)c1)CC1(CC2)OCCO1 | > 100 µM (inactive) | > 100 µM (inactive) | > 100 µM (inactive) | > 100 µM (inactive) | > 100 µM (inactive) | > 100 µM (inactive) | – | – | > 100 µM (inactive) | – | > 100 µM (inactive) | > 100 µM (inactive) | > 100 µM (inactive) | – | > 100 µM (inactive) | > 100 µM (inactive) | > 100 µM (inactive) | > 100 µM (inactive) | > 100 µM (inactive) | > 100 µM (inactive)
O=C1C=CC(=O)c2c1ccc1c3ccccc3n(Cc3ccc([N+](=O)[O-])cc3)c21 | > 100 µM (inactive) | > 100 µM (inactive) | > 100 µM (inactive) | – | 19.7 µM (inactive) | > 100 µM (inactive) | 14 µM (inactive) | > 100 µM (inactive) | > 100 µM (inactive) | > 100 µM (inactive) | > 100 µM (inactive) | > 100 µM (inactive) | > 100 µM (inactive) | > 100 µM (inactive) | > 100 µM (inactive) | > 100 µM (inactive) | > 100 µM (inactive) | > 100 µM (inactive) | > 10 µM (inactive) | –
CCOP(=O)(OCC)c1ccc(=O)[nH]c1-c1cccs1 | > 100 µM (inactive) | > 100 µM (inactive) | > 100 µM (inactive) | > 100 µM (inactive) | > 100 µM (inactive) | > 100 µM (inactive) | – | > 100 µM (inactive) | > 100 µM (inactive) | > 100 µM (inactive) | > 100 µM (inactive) | > 100 µM (inactive) | > 100 µM (inactive) | > 100 µM (inactive) | > 100 µM (inactive) | > 100 µM (inactive) | > 100 µM (inactive) | > 100 µM (inactive) | > 100 µM (inactive) | > 100 µM (inactive)
CC(=O)Oc1ccc2cc(Oc3ccccc3)c(=O)oc2c1 | 89.1 µM (inactive) | 90.8 µM (inactive) | 93.5 µM (inactive) | 67 µM (inactive) | – | > 100 µM (inactive) | > 100 µM (inactive) | – | > 100 µM (inactive) | > 100 µM (inactive) | 46 µM (inactive) | – | > 100 µM (inactive) | > 100 µM (inactive) | > 100 µM (inactive) | 80.9 µM (inactive) | – | > 100 µM (inactive) | > 100 µM (inactive) | 62.7 µM (inactive)
CCc1ccc2c(c1)/C(=C1/Nc3ccccc3/C1=N/O)C(=O)N2 | 10.6 µM (inactive) | 5.11 µM (inactive) | 14.7 µM (inactive) | 4.03 µM (inactive) | 4.5 µM (inactive) | 3.84 µM (inactive) | – | 11 µM (inactive) | 12.6 µM (inactive) | 6.49 µM (inactive) | 3.4 µM (inactive) | 2.44 µM (inactive) | 1.66 µM (inactive) | 4.71 µM (inactive) | 5.61 µM (inactive) | 6.55 µM (inactive) | 7.55 µM (inactive) | 15.2 µM (inactive) | 5.15 µM (inactive) | –
CN(C)C1(N(C)C)Oc2c(c(=O)n(C)c(=O)n2C)C(c2ccc(Br)cc2)C1(F)F (centres undefined) | > 100 µM (inactive) | > 100 µM (inactive) | > 100 µM (inactive) | > 100 µM (inactive) | – | > 100 µM (inactive) | – | > 100 µM (inactive) | > 100 µM (inactive) | > 100 µM (inactive) | > 100 µM (inactive) | > 100 µM (inactive) | > 100 µM (inactive) | – | – | – | > 100 µM (inactive) | > 100 µM (inactive) | > 100 µM (inactive) | 82.4 µM (inactive)
Cn1nc2ccc3nccc(N4CCN(CCO)CC4)c3c2n1 | > 100 µM (inactive) | > 100 µM (inactive) | > 100 µM (inactive) | > 100 µM (inactive) | 58.6 µM (inactive) | > 100 µM (inactive) | – | > 100 µM (inactive) | > 100 µM (inactive) | > 100 µM (inactive) | > 100 µM (inactive) | > 100 µM (inactive) | > 100 µM (inactive) | > 100 µM (inactive) | > 100 µM (inactive) | > 100 µM (inactive) | > 100 µM (inactive) | > 100 µM (inactive) | – | –
CCCCNS(=O)(=O)c1n[nH]c(=O)[nH]c1=O | 23.5 µM (inactive) | > 100 µM (inactive) | > 100 µM (inactive) | > 100 µM (inactive) | > 100 µM (inactive) | > 100 µM (inactive) | > 100 µM (inactive) | > 100 µM (inactive) | > 100 µM (inactive) | > 100 µM (inactive) | > 100 µM (inactive) | 17.6 µM (inactive) | > 100 µM (inactive) | > 100 µM (inactive) | > 100 µM (inactive) | > 100 µM (inactive) | > 100 µM (inactive) | – | > 100 µM (inactive) | –
Cc1cc(C#N)c[n+](C)c1 | > 100 µM (inactive) | > 100 µM (inactive) | > 100 µM (inactive) | > 100 µM (inactive) | > 100 µM (inactive) | > 100 µM (inactive) | > 100 µM (inactive) | > 100 µM (inactive) | > 100 µM (inactive) | > 100 µM (inactive) | > 100 µM (inactive) | > 100 µM (inactive) | > 100 µM (inactive) | > 100 µM (inactive) | > 100 µM (inactive) | > 100 µM (inactive) | – | > 100 µM (inactive) | – | –
COc1cccc(/N=N/C(=N\NC(=O)c2ccc(C)cc2)c2ccc(N(CCC#N)CCC#N)cc2C)c1 | 72.8 µM (inactive) | > 100 µM (inactive) | > 100 µM (inactive) | 44.3 µM (inactive) | > 100 µM (inactive) | > 100 µM (inactive) | – | – | > 100 µM (inactive) | > 100 µM (inactive) | 37.6 µM (inactive) | 48.2 µM (inactive) | 32.1 µM (inactive) | > 100 µM (inactive) | > 100 µM (inactive) | 35.1 µM (inactive) | 64.3 µM (inactive) | 42.8 µM (inactive) | > 100 µM (inactive) | > 100 µM (inactive)
O=[N+]([O-])c1ccc2nc3ccccc3cc2c1 | 2.26 µM (inactive) | 3.03 µM (inactive) | 2.99 µM (inactive) | 1.5 µM (inactive) | 0.0782 µM (active) | 3.04 µM (inactive) | – | 1.19 µM (inactive) | 3.33 µM (inactive) | 2.82 µM (inactive) | 0.342 µM (active) | 4.21 µM (inactive) | 2.39 µM (inactive) | 2 µM (inactive) | 1.96 µM (inactive) | 1.26 µM (inactive) | 1.46 µM (inactive) | 1.34 µM (inactive) | – | 3.28 µM (inactive)
NC(=O)c1ncn2c(=O)n(CCl)nnc12 | > 100 µM (inactive) | 51.6 µM (inactive) | > 100 µM (inactive) | > 100 µM (inactive) | 72.6 µM (inactive) | 47.9 µM (inactive) | – | 76 µM (inactive) | > 100 µM (inactive) | > 100 µM (inactive) | > 100 µM (inactive) | 83 µM (inactive) | 49.3 µM (inactive) | 43.2 µM (inactive) | > 100 µM (inactive) | 97.1 µM (inactive) | > 100 µM (inactive) | > 100 µM (inactive) | 24.3 µM (inactive) | > 100 µM (inactive)
CC(NC(=O)OCc1ccccc1)NC(=O)C(CC(=O)OC(C)(C)C)NC(=O)OC(C)(C)C (centres undefined) | > 100 µM (inactive) | > 100 µM (inactive) | > 100 µM (inactive) | > 100 µM (inactive) | > 100 µM (inactive) | > 100 µM (inactive) | – | > 100 µM (inactive) | > 100 µM (inactive) | > 100 µM (inactive) | > 100 µM (inactive) | > 100 µM (inactive) | > 100 µM (inactive) | > 100 µM (inactive) | > 100 µM (inactive) | > 100 µM (inactive) | > 100 µM (inactive) | > 100 µM (inactive) | > 100 µM (inactive) | > 100 µM (inactive)
CCOC(=O)c1[nH]c2nc(SC)nc(NC)c2c1N | > 100 µM (inactive) | 60.4 µM (inactive) | > 100 µM (inactive) | > 100 µM (inactive) | 90.2 µM (inactive) | > 100 µM (inactive) | – | 85.7 µM (inactive) | 92.7 µM (inactive) | > 100 µM (inactive) | > 100 µM (inactive) | > 100 µM (inactive) | – | 47.3 µM (inactive) | > 100 µM (inactive) | > 100 µM (inactive) | > 100 µM (inactive) | > 100 µM (inactive) | 46 µM (inactive) | –
NC1=NC(=O)[C@H](Cc2c[nH]c3ccccc23)N1C(=O)OCc1ccccc1 | > 100 µM (inactive) | 93.8 µM (inactive) | > 100 µM (inactive) | 61 µM (inactive) | 30.8 µM (inactive) | > 100 µM (inactive) | 31.7 µM (inactive) | 53.8 µM (inactive) | – | 93.8 µM (inactive) | 59.7 µM (inactive) | – | 81.8 µM (inactive) | > 100 µM (inactive) | 91 µM (inactive) | 46 µM (inactive) | 56.9 µM (inactive) | 49.3 µM (inactive) | – | –
